Two compounds from ChEMBL document CHEMBL6087487, “Discovery of a 2'-α-Fluoro-2'-β-C-(fluoromethyl) Purine Nucleotide Prodrug as a Potential Oral Anti-SARS-CoV-2 Agent” (J Med Chem, 2025) can be followed below.

Test [1] relates to SARS-CoV-2. Description: Antiviral activity against SARS-CoV-2 20SF107 infected in HPAEpiC cells assessed as inhibition of viral replication pretreated with compound and subsequent introduction of viral infection for 1 hr followed by inoculum removal and compound washout and further treatment with compound for 48 hrs by RT-qPCR analysis. It counts as functional, organism-based. To be noted: for EC50: Severe acute respiratory syndrome coronavirus 2, 20SF107, HPAEpiC. In general terms: Quantitative PCR measures a nucleic acid by following its amplification.

For test [2], the system named is SARS-CoV-2. Description: Antiviral activity against SARS-CoV-2 Omicron BA.5 infected in HPAEpiC cells assessed as inhibition of viral replication pretreated with compound and subsequent introduction of viral infection for 1 hr followed by inoculum removal and compound washout and further treatment with compound for 48 hrs by RT-qPCR analysis. It counts as functional, organism-based. As to conditions: Severe acute respiratory syndrome coronavirus 2, Omicron BA.5, HPAEpiC.

Usually EC50 stands for the concentration that produces a half-maximal response. Regarding `CCC(CC)COC(=O)[C@H](C)N[P@](=O)(OC[C@H]1O[C@@](C#N)(c2ccc3c(N)ncnn23)[C@H](O)[C@@H]1O)Oc1ccccc1` [REMDESIVIR], in the test on SARS-CoV-2 [1], the EC50 amounted to 910 nM.
With `CNc1nc(N)nc2c1ncn2[C@@H]1O[C@H](CO[P@@](=O)(N[C@@H](C)C(=O)OC(C)C)Oc2ccccc2)[C@@H](O)[C@]1(F)CF.O=S(=O)(O)O`, the EC50 with SARS-CoV-2 [1] stood at 560 nM; in the test on SARS-CoV-2 [2] it was 960 nM. Besides, the inhibition result in the test on SARS-CoV-2 [1] (Severe acute respiratory syndrome coronavirus 2, time 49.0 hrs) is “Dose-dependent-effect”.
